Laboratory results taken from ChEMBL document CHEMBL4033685, “C21-steroidal pregnane sapogenins and their derivatives as anti-inflammatory agents” (Bioorg Med Chem, 2017).
One block for each molecule: values may come before it. Activity calls are given as the source filed them. No cut-off for these calls is given here.

Columns and labels:
Toll-like receptor 4 [1] = biological target: T1, Toll-like receptor 4 (Homo sapiens, UniProt O00206); assay: Antagonist activity at TLR4 (unknown origin) expressed in human AD293 cells assessed as inhibition of LPS/ATP-stimulated TLR4/NF-kB signaling pathway at 10 uM after 16 hrs by luciferase reporter gene assay; type: cell-based
T1 sequence (O00206 whole entry): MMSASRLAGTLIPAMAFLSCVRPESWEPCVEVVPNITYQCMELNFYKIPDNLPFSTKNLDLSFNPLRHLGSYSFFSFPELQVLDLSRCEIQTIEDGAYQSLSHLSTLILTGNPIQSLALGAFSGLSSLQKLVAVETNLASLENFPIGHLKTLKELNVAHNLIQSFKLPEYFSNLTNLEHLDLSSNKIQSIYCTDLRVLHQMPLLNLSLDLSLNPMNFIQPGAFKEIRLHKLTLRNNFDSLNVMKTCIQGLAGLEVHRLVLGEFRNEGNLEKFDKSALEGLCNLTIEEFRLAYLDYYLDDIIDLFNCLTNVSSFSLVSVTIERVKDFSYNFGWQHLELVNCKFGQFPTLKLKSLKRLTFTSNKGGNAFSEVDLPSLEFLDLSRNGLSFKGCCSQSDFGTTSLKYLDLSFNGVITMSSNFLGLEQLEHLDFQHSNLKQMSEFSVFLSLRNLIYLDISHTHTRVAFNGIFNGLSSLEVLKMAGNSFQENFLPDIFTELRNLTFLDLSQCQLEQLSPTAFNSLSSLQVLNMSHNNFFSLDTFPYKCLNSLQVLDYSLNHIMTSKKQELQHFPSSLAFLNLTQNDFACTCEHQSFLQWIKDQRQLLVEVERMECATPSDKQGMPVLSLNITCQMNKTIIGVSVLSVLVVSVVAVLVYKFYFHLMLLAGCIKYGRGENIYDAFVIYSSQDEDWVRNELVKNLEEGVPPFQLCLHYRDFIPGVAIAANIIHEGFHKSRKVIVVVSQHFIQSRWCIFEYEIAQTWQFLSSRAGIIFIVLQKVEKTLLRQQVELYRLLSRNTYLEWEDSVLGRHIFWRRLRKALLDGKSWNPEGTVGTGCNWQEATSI

AD293 [2] = assay: Cytotoxicity against human AD293 cells assessed as reduction in cell viability at 10 uM after 24 hrs by methylene blue dye based spectrophotometric method; details: ad293, 24 h
[3] = biological target: Transcription factor p65 (Homo sapiens) (UniProt Q04206); assay: Inhibition of TNFalpha-stimulated NF-kB p65 phosphorylation (unknown origin) expressed in human AD293 cells at 10 uM after 3 hrs by Western blot analysis; type: cell-based
Sequence of Transcription factor p65 (Homo sapiens) (Q04206 whole entry): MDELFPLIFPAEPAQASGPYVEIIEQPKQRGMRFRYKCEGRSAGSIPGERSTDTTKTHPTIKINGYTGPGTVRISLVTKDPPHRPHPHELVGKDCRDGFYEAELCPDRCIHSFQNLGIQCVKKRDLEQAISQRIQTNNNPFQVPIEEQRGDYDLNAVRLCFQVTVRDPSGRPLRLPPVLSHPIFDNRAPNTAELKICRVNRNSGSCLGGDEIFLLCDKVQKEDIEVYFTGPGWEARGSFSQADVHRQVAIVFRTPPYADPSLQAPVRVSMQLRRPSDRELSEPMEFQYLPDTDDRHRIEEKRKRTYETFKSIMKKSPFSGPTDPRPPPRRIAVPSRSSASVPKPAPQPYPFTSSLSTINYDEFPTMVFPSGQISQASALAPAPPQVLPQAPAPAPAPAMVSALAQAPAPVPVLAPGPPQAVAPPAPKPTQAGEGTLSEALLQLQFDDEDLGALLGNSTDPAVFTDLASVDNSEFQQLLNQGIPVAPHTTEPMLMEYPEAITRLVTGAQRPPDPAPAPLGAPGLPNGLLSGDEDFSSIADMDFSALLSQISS

Toll-like receptor 4 [4] = biological target: T1, Toll-like receptor 4; assay: Antagonist activity at TLR4 in human THP1 cells harboring human TRAF6 assessed as inhibition of LPS-stimulated IL-1beta level at 10 uM by bead based immunoassay; type: cell-based
[5] = biological target: Toll-like receptor 2 (Homo sapiens) (UniProt O60603); assay: Antagonist activity at TLR2 in human THP1 cells assessed as inhibition of PGN-stimulated RANTES mRNA level at 10 uM after 16 hrs by RT-PCR method; type: cell-based
Sequence of Toll-like receptor 2 (Homo sapiens) (O60603 whole entry): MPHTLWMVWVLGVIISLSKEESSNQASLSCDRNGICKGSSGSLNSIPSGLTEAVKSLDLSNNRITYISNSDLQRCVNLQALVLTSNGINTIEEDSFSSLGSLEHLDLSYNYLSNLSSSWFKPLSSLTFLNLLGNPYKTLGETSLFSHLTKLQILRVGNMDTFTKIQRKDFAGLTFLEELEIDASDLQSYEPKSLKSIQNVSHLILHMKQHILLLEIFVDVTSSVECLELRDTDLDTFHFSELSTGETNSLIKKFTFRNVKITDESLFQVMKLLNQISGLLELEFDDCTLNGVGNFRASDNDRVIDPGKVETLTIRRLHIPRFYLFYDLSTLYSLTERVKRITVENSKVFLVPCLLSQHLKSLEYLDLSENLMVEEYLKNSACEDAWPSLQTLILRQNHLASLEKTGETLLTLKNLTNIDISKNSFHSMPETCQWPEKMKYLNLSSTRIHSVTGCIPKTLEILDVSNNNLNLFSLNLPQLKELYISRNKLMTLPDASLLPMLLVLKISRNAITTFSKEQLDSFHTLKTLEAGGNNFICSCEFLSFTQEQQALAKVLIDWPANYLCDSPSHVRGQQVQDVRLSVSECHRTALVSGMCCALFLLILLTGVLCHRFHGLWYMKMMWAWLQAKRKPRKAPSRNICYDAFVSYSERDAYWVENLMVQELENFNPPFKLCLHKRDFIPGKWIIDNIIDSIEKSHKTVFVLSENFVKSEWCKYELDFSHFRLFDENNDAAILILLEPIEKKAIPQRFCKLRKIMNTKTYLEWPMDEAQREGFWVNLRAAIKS

[6] = biological target: T2, NF-kappa-B inhibitor alpha (Homo sapiens) (UniProt P25963); assay: Inhibition of TNFalpha-stimulated IkBalpha phosphorylation in human AD293 cells at 10 uM after 3 hrs by Western blot analysis; type: cell-based
T2 sequence (whole entry): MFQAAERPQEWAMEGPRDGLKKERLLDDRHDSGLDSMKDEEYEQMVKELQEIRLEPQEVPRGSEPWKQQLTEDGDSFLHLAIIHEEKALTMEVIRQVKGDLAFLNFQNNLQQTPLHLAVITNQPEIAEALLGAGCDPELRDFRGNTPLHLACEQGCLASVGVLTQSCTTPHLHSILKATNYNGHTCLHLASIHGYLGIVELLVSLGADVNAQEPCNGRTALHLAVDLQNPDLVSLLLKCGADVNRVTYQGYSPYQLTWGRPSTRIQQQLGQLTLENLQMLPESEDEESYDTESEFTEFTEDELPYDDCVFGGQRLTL

[7] = biological target: Toll-like receptor 2 (Homo sapiens) (UniProt O60603); assay: Antagonist activity at TLR2 in human THP1 cells assessed as inhibition of PGN-stimulated IL-1beta level at 10 uM by bead based immunoassay; type: cell-based
Homo sapiens = species on record: Homo sapiens; assay: Inhibition of TNFalpha-stimulated NF-kB signaling pathway (unknown origin) expressed in human AD293 cells after 4 hrs by luciferase reporter gene assay; type: cell-based
THP-1 [8] = assay: Effect on RelB protein expression in human THP1 cells at 10 uM after 3 hrs by Western blot analysis; type: functional, cell-based
THP-1 [9] = assay: Downregulation of IkBalpha protein expression in human THP1 cells at 10 uM after 3 hrs by Western blot analysis; type: functional, cell-based
THP-1 [10] = assay: Upregulation of IKKalpha protein expression in human THP1 cells at 10 uM after 3 hrs by Western blot analysis; type: functional, cell-based
[11] = biological target: Toll-like receptor 3 (Homo sapiens) (UniProt O15455); assay: Antagonist activity at TLR3 in human THP1 cells assessed as inhibition of poly IC-stimulated TNFalpha level at 10 uM by bead based immunoassay; type: cell-based
Sequence of Toll-like receptor 3 (Homo sapiens) (O15455 whole entry): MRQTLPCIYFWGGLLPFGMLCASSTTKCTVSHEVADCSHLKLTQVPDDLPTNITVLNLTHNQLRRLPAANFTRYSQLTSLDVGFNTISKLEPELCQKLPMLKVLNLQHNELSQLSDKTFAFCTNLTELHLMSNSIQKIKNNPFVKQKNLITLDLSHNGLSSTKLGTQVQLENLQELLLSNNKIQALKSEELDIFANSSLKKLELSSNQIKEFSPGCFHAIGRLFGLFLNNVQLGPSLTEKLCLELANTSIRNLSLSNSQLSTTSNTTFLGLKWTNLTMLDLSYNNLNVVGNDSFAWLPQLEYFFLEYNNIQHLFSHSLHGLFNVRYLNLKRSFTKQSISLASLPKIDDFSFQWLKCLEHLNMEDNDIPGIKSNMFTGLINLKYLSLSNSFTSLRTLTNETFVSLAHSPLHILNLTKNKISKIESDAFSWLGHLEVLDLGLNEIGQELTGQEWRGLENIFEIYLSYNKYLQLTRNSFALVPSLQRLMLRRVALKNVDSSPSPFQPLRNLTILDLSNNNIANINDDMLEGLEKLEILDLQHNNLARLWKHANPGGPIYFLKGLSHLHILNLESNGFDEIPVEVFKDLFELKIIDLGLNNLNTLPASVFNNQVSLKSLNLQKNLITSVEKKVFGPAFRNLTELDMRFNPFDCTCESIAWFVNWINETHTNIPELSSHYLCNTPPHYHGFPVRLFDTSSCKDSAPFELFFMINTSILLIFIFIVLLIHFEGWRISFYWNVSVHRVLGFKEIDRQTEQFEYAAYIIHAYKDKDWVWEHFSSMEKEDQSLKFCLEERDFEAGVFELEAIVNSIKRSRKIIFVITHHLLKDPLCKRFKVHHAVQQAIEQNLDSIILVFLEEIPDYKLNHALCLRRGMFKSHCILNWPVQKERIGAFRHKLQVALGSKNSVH

Toll-like receptor 4 [12] = biological target: T1, Toll-like receptor 4; assay: Antagonist activity at TLR4 (unknown origin) expressed in human AD293 cells assessed as inhibition of LPS/ATP-stimulated TLR4/NF-kB signaling pathway after 16 hrs by luciferase reporter gene assay; type: cell-based
AD293 [13] = assay: Effect on IkBalpha protein expression in TNFalpha-stimulated human AD293 cells at 10 uM after 3 hrs by Western blot analysis; type: functional, cell-based
Toll-like receptor 4 [14] = biological target: T1, Toll-like receptor 4; assay: Antagonist activity at TLR4 in human THP1 cells assessed as inhibition of LPS-stimulated TNFalpha level at 10 uM by bead based immunoassay; type: cell-based
Toll-like receptor 4 [15] = biological target: T1, Toll-like receptor 4; assay: Antagonist activity at TLR4 in human THP1 cells assessed as inhibition of LPS-stimulated IL-1beta level at 10 uM by bead based immunoassay; type: cell-based
AD293 [16] = assay: Cytotoxicity against human AD293 cells assessed as reduction in cell viability after 24 hrs by methylene blue dye based spectrophotometric method; details: ad293, 24 h
[17] = biological target: Toll-like receptor 2 (Homo sapiens) (UniProt O60603); assay: Antagonist activity at TLR2 in human THP1 cells assessed as inhibition of PGN-stimulated IL-6 mRNA level at 10 uM after 16 hrs by RT-PCR method; type: cell-based
Toll-like receptor 4 [18] = biological target: T1, Toll-like receptor 4; assay: Antagonist activity at TLR4 in human THP1 cells assessed as inhibition of LPS-stimulated IL-6 mRNA level at 10 uM after 16 hrs by RT-PCR method; type: cell-based
[19] = biological target: Toll-like receptor 3 (Homo sapiens) (UniProt O15455); assay: Antagonist activity at TLR3 in human THP1 cells assessed as inhibition of poly IC-stimulated RANTES mRNA level at 10 uM after 16 hrs by RT-PCR method; type: cell-based
AD293 [20] = assay: Upregulation of IKKalpha protein expression in human AD293 cells at 10 uM after 3 hrs by Western blot analysis; type: functional, cell-based
Toll-like receptor 4 [21] = biological target: T1, Toll-like receptor 4; assay: Antagonist activity at TLR4 in human THP1 cells assessed as increase in LPS-stimulated NFkappaB p65 phosphorylation at 10 uM after 3 hrs by Western blot analysis; type: cell-based
THP-1 [22] = assay: Downregulation of IkBalpha protein expression in LPS-stimulated human THP1 cells at 10 uM after 3 hrs by Western blot analysis; type: functional, cell-based
THP-1 [23] = assay: Upregulation of IKKalpha protein expression in LPS-stimulated human THP1 cells at 10 uM after 3 hrs by Western blot analysis; type: functional, cell-based
Toll-like receptor 4 [24] = biological target: T1, Toll-like receptor 4; assay: Antagonist activity at TLR4 in human THP1 cells assessed as inhibition of LPS-stimulated IL-6 level at 10 uM by bead based immunoassay; type: cell-based
Toll-like receptor 4 [25] = biological target: T1, Toll-like receptor 4; assay: Antagonist activity at TLR4 in human THP1 cells harboring human TRAF6 assessed as inhibition of LPS-stimulated IL-6 level at 10 uM by bead based immunoassay; type: cell-based
Toll-like receptor 4 [26] = biological target: T1, Toll-like receptor 4; assay: Antagonist activity at TLR4 in human THP1 cells assessed as inhibition of LPS-stimulated NF-kB non-canonical signaling pathway by measuring decrease in RelB expression at 10 uM after 3 hrs by Western blot analysis; type: cell-based
Toll-like receptor 4 [27] = biological target: T1, Toll-like receptor 4; assay: Antagonist activity at TLR4 in human THP1 cells assessed as inhibition of LPS-stimulated NF-kB canonical signaling pathway by measuring decrease in IkBalpha phosphorylation at 10 uM after 3 hrs by Western blot analysis; type: cell-based
[28] = biological target: Toll-like receptor 3 (Homo sapiens) (UniProt O15455); assay: Antagonist activity at TLR3 in human THP1 cells assessed as inhibition of poly IC-stimulated IL-6 mRNA level at 10 uM after 16 hrs by RT-PCR method; type: cell-based
[29] = biological target: Toll-like receptor 3 (Homo sapiens) (UniProt O15455); assay: Antagonist activity at TLR3 in human THP1 cells assessed as inhibition of poly IC-stimulated IL-1beta level at 10 uM by bead based immunoassay; type: cell-based
[30] = biological target: Transcription factor p65 (Homo sapiens) (UniProt Q04206); assay: Upregulation of NF-kB p65 phosphorylation (unknown origin) expressed in human AD293 cells at 10 uM after 3 hrs by Western blot analysis; type: cell-based
Toll-like receptor 4 [31] = biological target: T1, Toll-like receptor 4; assay: Antagonist activity at TLR4 in human THP1 cells assessed as inhibition of LPS-stimulated RANTES mRNA level at 10 uM after 16 hrs by RT-PCR method; type: cell-based
[32] = biological target: Transcription factor p65 (Homo sapiens) (UniProt Q04206); assay: Inhibition of TNFalpha-stimulated NF-kB p65 activation (unknown origin) expressed in human AD293 cells assessed as nuclear translocation of p65 at 10 uM after 3 hrs by confocal microscopic method; type: cell-based
[33] = biological target: Toll-like receptor 2 (Homo sapiens) (UniProt O60603); assay: Antagonist activity at TLR2 in human THP1 cells assessed as inhibition of PGN-stimulated TNFalpha level at 10 uM by bead based immunoassay; type: cell-based
AD293 [34] = assay: Upregulation of IKKalpha protein expression in TNFalpha-stimulated human AD293 cells at 10 uM after 3 hrs by Western blot analysis; type: functional, cell-based
Toll-like receptor 4 [35] = biological target: T1, Toll-like receptor 4; assay: Antagonist activity at TLR4 in human THP1 cells harboring human TRAF6 assessed as inhibition of LPS-stimulated TNFalpha level at 10 uM by bead based immunoassay; type: cell-based

SMILES: COc1cc(/C=C/C(=O)O[C@H]2CC[C@@]3(C)C(=CC[C@]4(O)[C@@H]3C[C@@H](OC(=O)c3ccc(O)cc3)[C@@]3(C)[C@]4(O)CC[C@@]3(OC(=O)/C=C/c3cc(OC)c(OC)c(OC)c3)C(C)=O)C2)cc(OC)c1OC
- inhibition (Toll-like receptor 4 [1]): inactive
- Activity (AD293 [2]): Toxic

SMILES: COc1cc(/C=C/C(=O)O[C@H]2CC[C@@]3(C)C(=CC[C@]4(O)[C@@H]3C[C@H]3O[C@H](C)[C@]5(OC(=O)/C=C/c6ccccc6)CC[C@@]4(O)[C@]35C)C2)cc(OC)c1OC
- inhibition (Toll-like receptor 4 [1]): inactive
- Activity (AD293 [2]): Toxic

SMILES: CC(=O)[C@]1(OC(=O)c2ccc([N+](=O)[O-])cc2)CC[C@@]2(O)[C@]1(C)[C@H](OC(=O)c1ccc(O)cc1)C[C@@H]1[C@@]3(C)CC[C@H](OC(=O)c4ccc([N+](=O)[O-])cc4)CC3=CC[C@]12O
- inhibition (Toll-like receptor 4 [1]): inactive
- Activity (AD293 [2]): Toxic

SMILES: C[C@@H](OC(=O)c1ccccc1O)[C@]1(O)CC[C@@]2(O)[C@]1(C)[C@H](OC(=O)/C=C/c1ccccc1)C[C@@H]1[C@@]3(C)CC[C@H](O)CC3=CC[C@]12O
- inhibition [3]: inactive
- inhibition (Toll-like receptor 4 [4]): inactive
- inhibition [5]: Active
- inhibition [6]: inactive
- inhibition [7]: Active
- EC10 (Homo sapiens): > 10 µM
- Activity (THP-1 [8]): Active
- Activity (THP-1 [9]): Active
- Activity (THP-1 [10]): Active
- inhibition [11]: Active
- EC50 (Toll-like receptor 4 [12]): 4.9 µM
- Activity (AD293 [13]): inactive
- inhibition (Toll-like receptor 4 [14]): Active
- inhibition (Toll-like receptor 4 [15]): Active
- CC10 (AD293 [16]): > 10 µM
- inhibition [17]: Active
- inhibition (Toll-like receptor 4 [18]): Active
- inhibition [19]: Active
- Activity (AD293 [20]): Active
- inhibition (Toll-like receptor 4 [21]): inactive
- Activity (THP-1 [22]): Active
- Activity (THP-1 [23]): Active
- inhibition (Toll-like receptor 4 [24]): Active
- inhibition (Toll-like receptor 4 [25]): inactive
- inhibition (Toll-like receptor 4 [26]): Active
- inhibition (Toll-like receptor 4 [27]): inactive
- inhibition [28]: Active
- inhibition [29]: Active
- Activity [30]: Active
- inhibition (Toll-like receptor 4 [31]): Active
- inhibition [32]: inactive
- inhibition [33]: Active
- Activity (AD293 [34]): Active
- inhibition (Toll-like receptor 4 [35]): inactive

SMILES: CC(=O)O[C@H]1CC[C@@]2(C)C(=CC[C@]3(O)[C@@H]2C[C@@H](OC(=O)/C=C/c2ccccc2)[C@@]2(C)[C@]3(O)CC[C@@]2(O)C(C)=O)C1
- inhibition (Toll-like receptor 4 [1]): inactive
- Activity (AD293 [2]): Toxic

SMILES: CC(=O)[C@]1(O)CC[C@@]2(O)[C@]1(C)[C@H](OC(=O)/C=C(\C)C(C)C)C[C@@H]1[C@@]3(C)CC[C@H](OC(=O)/C=C/c4ccccc4)CC3=CC[C@]12O
- inhibition (Toll-like receptor 4 [18]): inactive
- inhibition (Toll-like receptor 4 [31]): inactive

SMILES: COc1ccc(/C=C/C(=O)O[C@H]2CC[C@@]3(C)C(=CC[C@]4(O)[C@@H]3C[C@@H](OC(=O)/C=C/c3ccccc3)[C@@]3(C)[C@]4(O)CC[C@@]3(O)C(C)=O)C2)cc1
- inhibition (Toll-like receptor 4 [1]): inactive
- Activity (AD293 [2]): Toxic

SMILES: CC(=O)[C@]1(O)CC[C@@]2(O)[C@]1(C)[C@H](OC(=O)/C=C(\C)C(C)C)C[C@@H]1[C@@]3(C)CC[C@H](Cl)CC3=CC[C@]12O
- EC10 (Homo sapiens): > 10 µM
- EC50 (Toll-like receptor 4 [12]): 12 µM
- CC10 (AD293 [16]): > 10 µM

- inhibition (Toll-like receptor 4 [1]): inactive
SMILES: CC(=O)[C@]1(O)CC[C@]23OC(C)(C)O[C@]24CC=C2C[C@@H](O)CC[C@]2(C)[C@H]4C[C@@H](OC(=O)c2ccc(O)cc2)[C@@]31C
- Activity (AD293 [2]): Toxic

SMILES: C[C@@H](OC(=O)c1cccnc1)[C@]1(O)CC[C@@]2(O)[C@]1(C)[C@H](OC(=O)/C=C/c1ccccc1)C[C@@H]1[C@@]3(C)C=CC(=O)C=C3C=C[C@]12O
- EC10 (Homo sapiens): > 10 µM
- EC50 (Toll-like receptor 4 [12]): 6.35 µM
- CC10 (AD293 [16]): > 10 µM
